The target in the test is T1, G1 APOL1 (Homo sapiens, UniProt O14791, I384M/S342G).
T1 construct: expressed in transfected cells
T1 sequence (O14791 28-398 S342G/I384M): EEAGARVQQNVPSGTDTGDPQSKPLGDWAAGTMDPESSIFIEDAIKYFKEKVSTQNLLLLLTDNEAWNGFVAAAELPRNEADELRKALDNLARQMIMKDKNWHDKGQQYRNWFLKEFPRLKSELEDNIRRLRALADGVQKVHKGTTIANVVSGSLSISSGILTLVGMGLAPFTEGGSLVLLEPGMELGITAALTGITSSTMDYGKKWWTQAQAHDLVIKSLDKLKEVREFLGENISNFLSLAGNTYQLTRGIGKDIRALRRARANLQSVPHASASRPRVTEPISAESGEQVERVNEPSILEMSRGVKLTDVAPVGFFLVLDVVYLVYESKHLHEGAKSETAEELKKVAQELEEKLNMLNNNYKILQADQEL
Description: Acute APOL1 Thallium Assay with inducible stable clones of HEK 293 cells. The format is cell-based. The following applies: HEK 293 T-Rex inducible stable clone expressing G1 APOL1; read-out: Thallium Assay (IC50). In short, it runs like this: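 APOL1 pore function was measured as thallium influx, detected by a Tl+-sensitive fluorescent dye loaded as AM ester, on a FLIPR Tetra after Tl+ addition. Cells were HEK T-Rex G1 APOL1 clone DC3.25, 26,000 per well, induced with tetracycline at plating in Opti-MEM assay medium.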

As to `NC(=O)C(=O)NC[C@H]1C[C@@H](c2c(-c3ccc(F)cc3)[nH]c3c(F)cc(F)cc32)C1` [Compound 453, N^1-(((1s,3s)-3-(5,7-difluoro-2-(4-fluorophenyl)-1H-indol-3-yl)cyclobutyl)methyl)oxalamide], the IC50 is greater than 1 µM.
For the molecule `OCC(CO)(CO)NCC1CC(c2c(-c3ccc(F)cc3)[nH]c3c(F)cc(F)cc23)C1` (stereo not shown) [Compound 406], the IC50 is greater than 1 µM.
As to `CC(C)(C)OC(=O)NC1(C(=O)NC[C@H]2C[C@H](c3c(-c4ccc(F)cc4)[nH]c4c(F)cc(F)cc43)C2)COC1` [Compound 311], the IC50 was greater than 1 µM.
Turning to `NC(=O)[C@H](CO)NS(=O)(=O)NC[C@H]1C[C@H](c2c(-c3ccc(F)cc3)[nH]c3c(F)cc(F)cc32)C1` [Compound 353], the IC50 was greater than 1 µM.
As for `OCC(O)CNCC1CC(c2c(-c3ccc(F)cc3)[nH]c3c(F)cc(F)cc23)C1` (stereo not shown) [Compound 385], the figure is 0.25 to 1 µM.
Regarding `NS(=O)(=O)NC[C@H]1C[C@H](c2c(-c3ccc(F)cc3)[nH]c3c(F)cc(F)cc32)C1` [Compound 372], the IC50 is less than 0.25 µM.
Under `O=C1CC(NC[C@H]2C[C@H](c3c(-c4ccc(F)cc4)[nH]c4c(F)cc(F)cc43)C2)C(=O)N1` (stereo partly shown) [Compound 422, 3-((((1r,3r)-3-(5,7-difluoro-2-(4-fluorophenyl)-1H-indol-3-yl)cyclobutyl)methyl)amino)pyrrolidine-2,5-dione] stands 0.25 to 1 µM; under `O=S(=O)(NC[C@H](O)CO)NC[C@H]1C[C@H](c2c(-c3ccc(F)cc3)[nH]c3c(F)cc(F)cc32)C1` [Compound 350], greater than 1 µM.
As for `O=C(CO)N[C@H]1C[C@H](c2c(-c3ccc(F)cc3)[nH]c3c(F)cc(F)cc32)C1` [Compound 429, N-((1r,3r)-3-(5,7-difluoro-2-(4-fluorophenyl)-1H-indol-3-yl)cyclobutyl)-2-hydroxyacetamide], the figure is 0.25 to 1 µM; as for `Cn1ccnc1S(=O)(=O)N[C@H]1C[C@@H](c2c(-c3ccc(F)cc3)[nH]c3c(F)cc(F)cc32)C1` [Compound 85], greater than 1 µM.
Turning to `C[C@H](O)C(=O)NC[C@H]1C[C@H](c2c(-c3ccc(F)cc3)[nH]c3c(F)cc(F)cc32)C1` [Compound 207], the IC50 lay in the range of 0.25 to 1 µM.
On to `Cc1cc[nH]c1C(=O)NC1CC(Cc2c(-c3ccc(F)cc3)[nH]c3c(F)cc(F)cc23)C1` (stereo not shown) [Compound 171], for which the IC50 was greater than 1 µM.
On to `O=C1CCC(CNS(=O)(=O)NC[C@H]2C[C@H](c3c(-c4ccc(F)cc4)[nH]c4c(F)cc(F)cc43)C2)N1` (stereo partly shown) [Compound 340], for which the IC50 is greater than 1 µM.
Take `C[C@@]1(C(=O)NC[C@H]2C[C@H](c3c(-c4ccc(F)cc4)[nH]c4c(F)cc(F)cc43)C2)CCCN1` [Compound 289]: the IC50 was greater than 1 µM.
`O=C(CC1(O)CCCCC1)N[C@H]1C[C@H](c2c(-c3ccc(F)cc3)[nH]c3c(F)cc(F)cc32)C1` [Compound 113]: the IC50 is greater than 1 µM.
On to `O=C(NC[C@H]1C[C@H](c2c(-c3ccc(F)cc3)[nH]c3c(F)cc(F)cc32)C1)C1(O)COC1` [Compound 221], for which the IC50 lay in the range of 0.25 to 1 µM.
Under `O=C1NCCC1NCC1CC(c2c(-c3ccc(F)cc3)[nH]c3c(F)cc(F)cc23)C1` (stereo not shown) [Compound 386] stands 0.25 to 1 µM; under `O=S(=O)(NC[C@H]1C[C@H](c2c(-c3ccc(F)cc3)[nH]c3c(F)cc(F)cc32)C1)N[C@@H](CO)C(F)F` [Compound 347], greater than 1 µM.
Regarding `O=C(CCO)NC[C@H]1C[C@@H](c2c(-c3ccc(F)cc3)[nH]c3c(F)cc(F)cc32)C1` [Compound 206], the IC50 is 0.25 to 1 µM.
Under `CC(C)(C)OC(=O)NC1(C(=O)NC[C@H]2C[C@H](c3c(-c4ccc(F)cc4)[nH]c4c(F)cc(F)cc43)C2)CCC1` [Compound 286] stands greater than 1 µM; under `NC(=O)CC(=O)NC[C@H]1C[C@H](c2c(-c3ccc(F)cc3)[nH]c3c(F)cc(F)cc32)C1` [Compound 450, N^1-(((1r,3r)-3-(5,7-difluoro-2-(4-fluorophenyl)-1H-indol-3-yl)cyclobutyl)methyl)malonamide], 0.25 to 1 µM.
Consider `CN(C)CC(=O)NC[C@H]1C[C@@H](c2c(-c3ccc(F)cc3)[nH]c3c(F)cc(F)cc32)C1` [Compound 320], for which the IC50 is greater than 1 µM.
As for `C[C@@H](O)[C@@H](CO)NCC1CC(c2c(-c3ccc(F)cc3)[nH]c3c(F)cc(F)cc23)C1` (stereo partly shown) [Compound 408], the figure is greater than 1 µM; as for `O=C(NC1CC(Cc2c(-c3ccc(F)cc3)[nH]c3c(F)cc(F)cc23)C1)c1ccn[nH]1` (stereo not shown) [Compound 166], greater than 1 µM; as for `CN(CC(=O)N[C@H]1C[C@H](c2c(-c3ccc(F)cc3)[nH]c3c(F)cc(F)cc32)C1)S(C)(=O)=O` [Compound 103], greater than 1 µM.
As for `O=C(CC(=O)N1CCOCC1)NC[C@H]1C[C@@H](c2c(-c3ccc(F)cc3)[nH]c3c(F)cc(F)cc32)C1` [Compound 300], the figure is greater than 1 µM.
As for `NC1(C(=O)NC[C@H]2C[C@H](c3c(-c4ccc(F)cc4)[nH]c4c(F)cc(F)cc43)C2)CCC1` [Compound 244], the figure is greater than 1 µM; as for `CS(=O)(=O)NCC(=O)NC[C@H]1C[C@@H](c2c(-c3ccc(F)cc3)[nH]c3c(F)cc(F)cc32)C1` [Compound 271], greater than 1 µM.
For the molecule `O=C(NC[C@H]1C[C@H](c2c(-c3ccc(F)cc3)[nH]c3c(F)cc(F)cc32)C1)c1ccncn1` [Compound 288], the IC50 is greater than 1 µM.
Under `C[C@H](O)[C@H](CO)NCC1CC(c2c(-c3ccc(F)cc3)[nH]c3c(F)cc(F)cc23)C1` (stereo partly shown) [Compound 392] stands greater than 1 µM.
On to `CN1CCCC(CC(=O)N[C@H]2C[C@H](c3c(-c4ccc(F)cc4)[nH]c4c(F)cc(F)cc43)C2)C1` (stereo partly shown) [Compound 104], for which the IC50 is greater than 1 µM.
Regarding `C[C@H](N)C(=O)NC[C@H]1C[C@H](c2c(-c3ccc(F)cc3)[nH]c3c(F)cc(F)cc32)C1` [Compound 189, (S)-2-amino-N-(((1r,3S)-3-(5,7-difluoro-2-(4-fluorophenyl)-1H-indol-3-yl)cyclobutyl)methyl)propanamide], the IC50 was less than 0.25 µM.
Under `O=C1CC(NCC2CC(c3c(-c4ccc(F)cc4)[nH]c4c(F)cc(F)cc34)C2)CN1` (stereo not shown) [Compound 410] stands greater than 1 µM.
In the case of `O=C(CC1CCCOC1)N[C@H]1C[C@@H](c2c(-c3ccc(F)cc3)[nH]c3c(F)cc(F)cc32)C1` (stereo partly shown) [Compound 53], the IC50 was greater than 1 µM.
Under `O=C(CC1CCOCC1)NC[C@H]1C[C@@H](c2c(-c3ccc(F)cc3)[nH]c3c(F)cc(F)cc32)C1` [Compound 325] stands greater than 1 µM.
Under `O=C(NC[C@H]1C[C@H](c2c(-c3ccc(F)cc3)[nH]c3c(F)cc(F)cc32)C1)[C@@H]1C[C@H](O)CN1` [Compound 254] stands greater than 1 µM.
As for `CN1CC(NS(=O)(=O)NC[C@H]2C[C@H](c3c(-c4ccc(F)cc4)[nH]c4c(F)cc(F)cc43)C2)CC1=O` (stereo partly shown) [Compound 336], the figure is greater than 1 µM.
Turning to `O=S(=O)(NC[C@H]1C[C@H](c2c(-c3ccc(F)cc3)[nH]c3c(F)cc(F)cc32)C1)c1c[nH]cn1` [Compound 415], the IC50 lay in the range of 0.25 to 1 µM.
Under `O=C(NC[C@H]1C[C@H](c2c(-c3ccc(F)cc3)[nH]c3c(F)cc(F)cc32)C1)[C@@H]1CCN1` [Compound 198] stands less than 0.25 µM; under `O=C1c2ccccc2C(=O)N1CCS(=O)(=O)NC[C@H]1C[C@H](c2c(-c3ccc(F)cc3)[nH]c3c(F)cc(F)cc32)C1` [Compound 420], greater than 1 µM.

One may read the IC50 as the concentration needed to halve the response being measured.

For the origin of these results see patent US12281102B2, “Inhibitors of APOL1 and methods of using same” (Vertex Pharmaceuticals Incorporated, priority 2020, dated 2025).
